Literature values in patent EP1048712A1, “A process of treating fabrics with a laundry detergent additive tablet” (THE PROCTER & GAMBLE COMPANY, priority 1999, dated 2000).

Details: 25°C
In the case of `N#CS` [NCS-], the “base hydrolysis rates (kOH)” value is listed as 0.0005 M⁻¹ s⁻¹. In the case of `CC(=O)O` [acetate], the “base hydrolysis rates (kOH)” value is listed as 0.00096 M⁻¹ s⁻¹. For `O=CO` [formate], the “base hydrolysis rates (kOH)” value is listed as 0.00058 M⁻¹ s⁻¹. For oxalate, the “base hydrolysis rates (kOH)” value is listed as 0.00025 M⁻¹ s⁻¹.
